Assays:
[1] = molecular target: GDP-bound NRAS wild-type protein (Homo sapiens, UniProt P01111); test: Binding to NRAS by surface plasmon resonance (SPR), Single Cycle Kinetics; conditions: for NRAS/KRAS (ratio of KD value for NRAS to KD value for KRAS) / NRAS/KRAS (ratio of KD value with respect to NRAS to KD value with respect to KRAS): SPR, GDP-bound NRAS wild-type protein vs GDP-bound KRAS wild-type protein; for NRAS/KRAS (ratio of KD value with respect to GDP-bound NRAS wild-type protein to KD value with respect to KRAS): SPR KD ratio NRAS/KRAS, class symbols
[2] = molecular target: GDP-bound HRAS wild-type protein (Homo sapiens, UniProt P01112); test: Binding to HRAS by surface plasmon resonance (SPR), Single Cycle Kinetics; conditions: for HRAS/KRAS (ratio of KD value for HRAS to KD value for KRAS) / HRAS/KRAS (ratio of KD value with respect to HRAS to KD value with respect to KRAS): SPR, GDP-bound HRAS wild-type protein vs GDP-bound KRAS wild-type protein; for HRAS/KRAS (ratio of KD value with respect to GDP-bound HRAS wild-type protein to KD value with respect to KRAS): SPR KD ratio HRAS/KRAS, class symbols
Sequence of GDP-bound HRAS wild-type protein (P01112 whole entry): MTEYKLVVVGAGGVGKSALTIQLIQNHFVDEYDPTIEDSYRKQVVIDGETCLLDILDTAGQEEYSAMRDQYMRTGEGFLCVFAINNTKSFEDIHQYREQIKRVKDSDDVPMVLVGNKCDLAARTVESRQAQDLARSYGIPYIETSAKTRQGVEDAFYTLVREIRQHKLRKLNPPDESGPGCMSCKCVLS

Sequence of GDP-bound NRAS wild-type protein (P01111 whole entry): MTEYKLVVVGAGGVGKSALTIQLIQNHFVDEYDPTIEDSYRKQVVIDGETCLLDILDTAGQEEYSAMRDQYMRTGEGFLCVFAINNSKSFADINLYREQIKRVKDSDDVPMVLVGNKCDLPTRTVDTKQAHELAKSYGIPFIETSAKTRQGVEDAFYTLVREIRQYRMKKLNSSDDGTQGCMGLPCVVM

Structure (SMILES)	NRAS/KRAS (ratio of KD value for NRAS to KD value for KRAS) [1]	HRAS/KRAS (ratio of KD value for HRAS to KD value for KRAS) [2]	also measured
CCO[C@@H]1C[C@H]2C(=O)NC3(CCC3)C(=O)N(C)[C@@H](C3CCCC3)C(=O)N(C)[C@H](C(=O)N3CCOCC3)CC(=O)N(C)[C@@H](CC(C)C)C(=O)N[C@@H]([C@@H](C)CC)C(=O)N3CC[C@H]3C(=O)N(C)[C@H]3C[C@@H](C)CCN(C3=O)[C@@H](Cc3ccc(C(F)(F)F)cc3)C(=O)N(C)CC(=O)N[C@@H](CCc3cc(F)c(C(F)(F)F)c(F)c3)C(=O)N2C1 [PP1026]	B (a compound having 3 or more and less than 10 is denoted as B)	B (a compound having 3 or more and less than 10 is denoted as B)	
CCCOC[C@H]1C(=O)N[C@@H]([C@@H](C)CC)C(=O)N(C)CC(=O)N(C)[C@H]2C/C=C\CCN(C2=O)[C@@H](Cc2ccc(C)cc2)C(=O)N(C)CC(=O)N[C@@H](CCc2ccc(C(F)(F)F)c(OC)c2)C(=O)N2C[C@H](OCC)C[C@H]2C(=O)N(C)C2(CCC2)C(=O)N(C)[C@@H](C(CC)CC)C(=O)N(C)[C@H](C(=O)N(C)C)CC(=O)N1C [PP2323]	A (a compound having 10 or more and less than 20 is denoted as A)	A (a compound having 10 or more and less than 20 is denoted as A)	
CCCC[C@H]1C(=O)N[C@@H]([C@@H](C)CC)C(=O)N(C)CC(=O)N(C)[C@H]2C/C=C\CCN(C2=O)[C@@H](Cc2ccc(C(F)(F)F)cc2)C(=O)N(C)CC(=O)N[C@@H](CCc2cc(F)c(C(F)(F)F)c(F)c2)C(=O)N2C[C@H](OCC)C[C@H]2C(=O)NC2(CCC2)C(=O)N(C)[C@@H](C2CCCC2)C(=O)N(C)[C@H](C(=O)N(CC)CC)CC(=O)N1C [PP1576]			NRAS/KRAS (ratio of KD value for NRAS to KD value for KRAS) ([1]; KD ratio class): AA (a compound having 20 or more is denoted as AA); HRAS/KRAS (ratio of KD value for HRAS to KD value for KRAS) ([2]; KD ratio class): A (a compound having 10 or more and less than 20 is denoted as A)
CCC(CC)[C@H]1C(=O)N(C)[C@H](C(=O)N(C)C)CC(=O)N(C)[C@@H](COC)C(=O)N[C@@H]([C@@H](C)CC)C(=O)N(C)CC(=O)N(C)[C@H]2C/C=C\CCN(C2=O)[C@@H](Cc2ccc(C)cc2)C(=O)N(C)CC(=O)N[C@@H](CCc2cc(F)c(C(F)(F)F)c(F)c2)C(=O)N2CCCC[C@H]2C(=O)NC2(CC(C)(C)C2)C(=O)N1C [PP2922]			NRAS/KRAS (ratio of KD value with respect to GDP-bound NRAS wild-type protein to KD value with respect to KRAS) [1]: AA (a compound having 20 or more is denoted as AA); HRAS/KRAS (ratio of KD value with respect to GDP-bound HRAS wild-type protein to KD value with respect to KRAS) [2]: A (a compound having 10 or more and less than 20 is denoted as A)
CC[C@H](C)[C@@H]1NC(=O)[C@H](CC2CCCC2)N(C)C(=O)C[C@@H](C(=O)N(C)C)N(C)C(=O)[C@H](C2CCCC2)N(C)C(=O)C2(CCC2)NC(=O)[C@@H]2C[C@@H](C(F)(F)F)CN2C(=O)[C@H](CCc2cc(F)c(C(F)(F)F)c(F)c2)NC(=O)CN(C)C(=O)[C@H](Cc2ccc(F)cc2)N2CC/C=C\C[C@@H](C2=O)N(C)C(=O)CN(C)C1=O [PP1508]			NRAS/KRAS (ratio of KD value for NRAS to KD value for KRAS) ([1]; KD ratio class): A (a compound having 10 or more and less than 20 is denoted as A); HRAS/KRAS (ratio of KD value for HRAS to KD value for KRAS) ([2]; KD ratio class): A (a compound having 10 or more and less than 20 is denoted as A)
CCO[C@@H]1C[C@H]2C(=O)NC3(CCC3)C(=O)N(C)[C@@H](C3CCCC3)C(=O)N(C)[C@H](C)CC(=O)N(C)[C@@H](CC(C)C)C(=O)N[C@@H]([C@@H](C)CC)C(=O)N(C)CC(=O)N(C)[C@H]3C/C=C\CCN(C3=O)[C@@H](Cc3ccc(C(F)(F)F)cc3)C(=O)N(C)CC(=O)N[C@@H](CCc3cc(F)c(C(F)(F)F)c(F)c3)C(=O)N2C1 [PP1100]	B (a compound having 3 or more and less than 10 is denoted as B)	B (a compound having 3 or more and less than 10 is denoted as B)	
CCC[C@H]1C(=O)N[C@@H]([C@@H](C)CC)C(=O)N(C2CC2)CC(=O)N(C)[C@H]2C/C=C\CCN(C2=O)[C@@H](Cc2ccc(C)cc2)C(=O)N(C)CC(=O)N[C@@H](CCc2ccc(C3CC3)c(OC)c2)C(=O)N2C[C@H](OCC)C[C@H]2C(=O)NC2(CC(C)(C)C2)C(=O)N(C)[C@@H](C2CCCC2)C(=O)N(C)[C@H](C(=O)N(C)C)CC(=O)N1C [PP2883]			NRAS/KRAS (ratio of KD value with respect to GDP-bound NRAS wild-type protein to KD value with respect to KRAS) [1]: A (a compound having 10 or more and less than 20 is denoted as A); HRAS/KRAS (ratio of KD value with respect to GDP-bound HRAS wild-type protein to KD value with respect to KRAS) [2]: A (a compound having 10 or more and less than 20 is denoted as A)
CC[C@H](C)[C@@H]1NC(=O)[C@H](CC(C)C)N(C)C(=O)C[C@@H](C(=O)N2CCOCC2)N(C)C(=O)[C@H](C2CCC2)N(C)C(=O)C2(CCCC2)NC(=O)[C@@H]2CCCN2C(=O)[C@H](CCc2cc(F)c(C(F)(F)F)c(F)c2)NC(=O)CN(C)C(=O)[C@H](Cc2ccc(C(F)(F)F)cc2)N2CCCCC[C@@H](C2=O)N(C)C(=O)CN(C)C1=O [PP0504]			NRAS/KRAS (ratio of KD value with respect to NRAS to KD value with respect to KRAS) [1]: B (a compound having 3 or more and less than 10 is denoted as B); HRAS/KRAS (ratio of KD value with respect to HRAS to KD value with respect to KRAS) [2]: B (a compound having 3 or more and less than 10 is denoted as B)
CCO[C@@H]1C[C@H]2C(=O)NC3(CCC3)C(=O)N(C)[C@@H](C3CCCC3)C(=O)N(C)[C@H](C(=O)N3CCOCC3)CC(=O)N(CC)[C@@H](CC(C)C)C(=O)N[C@@H]([C@@H](C)CC)C(=O)N(C)CC(=O)N(C)[C@H]3C[C@@H](C)CCN(C3=O)[C@@H](Cc3ccc(C(F)(F)F)cc3)C(=O)N(C)CC(=O)N[C@@H](CCc3cc(F)c(C(F)(F)F)c(F)c3)C(=O)N2C1 [PP1030]	B (a compound having 3 or more and less than 10 is denoted as B)	B (a compound having 3 or more and less than 10 is denoted as B)	
CCC[C@H]1C(=O)N[C@@H](C2CCCC2)C(=O)N(C)CC(=O)N(C)[C@H]2C/C=C\CCN(C2=O)[C@@H](Cc2ccc(C)cc2)C(=O)N(C)CC(=O)N[C@@H](CCc2cc(F)c(C(F)(F)F)c(F)c2)C(=O)N2C[C@H](OCC)C[C@H]2C(=O)NC2(CC(C)(C)C2)C(=O)N(C)[C@@H](C2CCCC2)C(=O)N(C)[C@H](C(=O)N(C)C)CC(=O)N1C [PP2988]	B (a compound having 3 or more and less than 10 is denoted as B)	B (a compound having 3 or more and less than 10 is denoted as B)	
CC[C@H](C)[C@@H]1NC(=O)[C@H](CC(C)C)N(C)C(=O)C[C@@H](C(=O)N2C3CCC2COC3)N(C)C(=O)[C@H](C2CCCC2)N(C)C(=O)C2(CCCC2)NC(=O)[C@@H]2CCCN2C(=O)[C@H](CCc2cc(F)c(C(F)(F)F)c(F)c2)NC(=O)CN(C)C(=O)[C@H](Cc2ccc(C(F)(F)F)cc2)N2CCCC[C@@H](C2=O)N(C)C(=O)CN(C)C1=O [PP0573]			NRAS/KRAS (ratio of KD value with respect to NRAS to KD value with respect to KRAS) [1]: B (a compound having 3 or more and less than 10 is denoted as B); HRAS/KRAS (ratio of KD value with respect to HRAS to KD value with respect to KRAS) [2]: B (a compound having 3 or more and less than 10 is denoted as B)
CC[C@H](C)[C@@H]1NC(=O)[C@H](COC)N(C)C(=O)C[C@@H](C(=O)N2CCOCC2)N(C)C(=O)[C@H](C2CCCC2)N(C)C(=O)C2(CCC2)NC(=O)[C@@H]2CC(F)(F)CN2C(=O)[C@H](CCc2cc(F)c(C(F)(F)F)c(F)c2)NC(=O)CN(C)C(=O)[C@H](Cc2ccc(C(F)(F)F)cc2)N2CCCCC[C@@H](C2=O)N(C)C(=O)CN(C)C1=O [PP0834]	A (a compound having 10 or more and less than 20 is denoted as A)	B (a compound having 3 or more and less than 10 is denoted as B)	
